Measurements as given in patent US20060068457A1, “Substrates for tafi (a)” (priority 2002, published 2006).

Tests used:
[1] = molecular target: T1, TAFIa (Homo sapiens, UniProt Q96IY4); experiment: Splitting of thiaarginine and thialysine substrates by TAFIa (DTNB chromogenic enzyme assay); format: biochemical; conditions: substrate final concentration 174 μM, TAFIa final concentration 17 μg/ml, RT, 10 min
T1 construct: purchased Enzyme Research Laboratory
T1 sequence (Q96IY4 115-423): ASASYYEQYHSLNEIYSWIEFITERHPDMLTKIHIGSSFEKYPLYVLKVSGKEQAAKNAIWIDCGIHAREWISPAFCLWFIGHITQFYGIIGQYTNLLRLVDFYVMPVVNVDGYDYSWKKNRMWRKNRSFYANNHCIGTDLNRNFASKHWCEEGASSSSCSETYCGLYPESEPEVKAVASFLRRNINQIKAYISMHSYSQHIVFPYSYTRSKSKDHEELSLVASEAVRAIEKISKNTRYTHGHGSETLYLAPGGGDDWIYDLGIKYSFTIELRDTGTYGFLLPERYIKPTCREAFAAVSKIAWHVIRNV
Source text: In a first step, the substrate is hydrolyzed by TAFIa in such a way that a thioamino acid (thiaarginine or thialysine) is released. These instable intermediates are rapidly decomposed into 2-mercaptoethylguanidine or […], respectively. These mercapto compounds react with Ellman's reagent (5,5′-dithio-bis-(2-nitrobenzoic acid)), thereby releasing the strongly yellow 3-carboxy-4-nitrothiophenol that can be measured using a spectrophotometer at 405-412 nm. The free thiol content measured is directly proportional to the quantity of substrate hydrolyzed by TAFIa and thereby allows a quantitative analysis of the enzyme activity.
Enzyme assay: The enzyme activity is measured at room temperature by using a 10 mM substrate stock solution in DMSO. TAFI of human origin can be obtained in a stock solution of 360 μg/ml from Enzyme Research Laboratory or over blood plasma. Activation of TAFI to TAFIa occurred with thrombin (2.7 U/ml), the activation of which was produced with 30 μg of thrombomodulin. Excessive thrombin activity was eliminated by adding the synthetic inhibitor NAPAP. The measurement was performed on microtiter plates.
The absorption increase at 405-412 nm was recorded for 10 minutes.
in buffer (20 mM HEPES, 5 mM CaCl2, 0.01% Tween 80; pH 7.4) • incubate for 5 min at 25° C.
(§1) • measure for 10 min at RT Results: • Splitting of thiaarginine and thialysine substrates (final concentration 174 μM) by TAFIa (final concentration 17 μg/ml) • in brackets the value for carboxypeptidase B • Substances of comparison A and B from Bull. Korean. Chem. Soc. 1998, 19(2), 189-193
(§2) ΔE=Extinction variation at 405 nm

[2] = molecular target: T2, carboxypeptidase B (Homo sapiens, UniProt P15086); experiment: Splitting of thiaarginine and thialysine substrates by carboxypeptidase B; format: biochemical; conditions: substrate final concentration 174 μM
T2 sequence (P15086 111-417): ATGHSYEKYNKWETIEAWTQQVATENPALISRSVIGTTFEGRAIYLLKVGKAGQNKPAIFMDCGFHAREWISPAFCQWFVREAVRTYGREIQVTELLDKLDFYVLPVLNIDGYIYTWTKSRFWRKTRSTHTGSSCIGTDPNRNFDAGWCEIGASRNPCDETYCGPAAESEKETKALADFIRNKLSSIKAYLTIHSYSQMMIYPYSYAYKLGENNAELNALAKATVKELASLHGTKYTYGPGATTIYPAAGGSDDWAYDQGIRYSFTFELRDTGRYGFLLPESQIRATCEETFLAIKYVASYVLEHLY
Protocol: The thiaarginine derivatives of the following formulas A and B [drawing 2] have been described as substrates for carboxypeptidase B (Bull. Korean. Chem. Soc. 1998, 19(2), 189-193). […] Detection of CPB by means of compound A is carried out according to the following FIG. 1. [drawing]
as §1, §2

| Molecule | ΔE/min (extinction variation at 405 nm), splitting by TAFIa [1] | ΔE/min (extinction variation at 405 nm), value in brackets for carboxypeptidase B [2] |
| --- | --- | --- |
| Cl.NC(N)=NCCSC(NC(=O)[C@H](CCCCNC(=O)OCc1ccccc1)NC(=O)c1ccccc1)C(=O)O (stereo partly drawn) [No. 4269, benzoyl-(L)-lysyl-(E-benzyloxycarbonyl)-α-(D, L)-(2-guanidinoethylthio)-glycine hydrochloride salt] | 0.108 | (0.018) |
| Boc-F-K(Boc)-G(GUS)-OH × HCl [No. 4298] | 0.043 | (0.034) |
| Boc-K(Tos)-G(GUS)-OH × HCl [No. 4273] | 0.014 | (0.048) |
| Boc-K(Z)-G(GUS)-OH × TFA [No. 4275] | 0.041 | (0.028) |
| Bz-P-K(Boc)-G(GUS)-OH × TFA [No. 4300] | 0.012 | (0.072) |
| Z-A-K(Boc)-G(GUS)-OH × HCl [No. 4302] | 0.042 | (0.059) |

Results, then the molecule that gave them:

| ΔE/min (extinction variation at 405 nm), splitting by TAFIa [1] | ΔE/min (extinction variation at 405 nm), value in brackets for carboxypeptidase B [2] | Molecule |
| --- | --- | --- |
| 0.055 |  | NCCCSC(NC(=O)[C@H](CCCCNC(=O)OCc1ccccc1)NC(=O)c1ccccc1)C(=O)O.O=C(O)C(F)(F)F (stereo partly drawn) [No. 4339, benzoyl-(L)-lysyl-(F-benzyloxycarbonyl)-α-(D,L)-(3-aminopropylthio)-glycine trifluoracetic acid salt] |
| 0.054 |  | Boc-K(Z)-G(α-SPrA)-OH × TFA [No. 4341] |
| 0.034 |  | Bz-V-G(GUS)-OH × TFA [No. 4334] |
| 0.053 |  | Bz-V-G(α-SPrA)-OH × TFA [No. 4336] |
